Experimental findings from patent publication US11400283B2, “Pulse generating device for delivery of electrical pulses to a desired tissue of a mammal” (SC[…] AB, priority 2017, dated 2022) are described below.

Each structure is given as a SMILES string.

For this data set the following is noted: rat, 6 hours after electroporation treatment, 800 V/cm, 12 pulses of 250 μs length.

Description: FIG. 3 schematically illustrates a Gamma Camera image of a rat taken 6 hours after an electroporation treatment with electrical field strength of 800 V/cm and 12 pulses of 250 μs length. […] In FIG. 3, the injection site, the electroporation site and three reference sites are shown.
Further, investigation of the effect of applied electric pulses of 600, 800, 1000, 1200 V/cm; having 100 and 500 μs pulse length, and 2, 4, 6 or 12 pulses, on the accumulation of the radiolabeled pharmaceutical ^99mTc-DTPA that mimics the Bleomycin, in rat muscular tissue after in vivo electro-permeabilization has been performed. Gamma camera measurements is applied to noninvasively quantify the accumulation of ^99mTc-DTPA in the region treated with electrical pulses as previously described.

With `O=C([O-])CN(CCN(CC(=O)[O-])CC(=O)[O-])CCN(CC(=O)[O-])CC(=O)[O-].[99Tc+4]` [99Tcm-DTPA, 99Tcm- diethylene-triamine-penta-acetic-acid], the “activity in the electroporated site (Gamma Camera image)” value is recorded as “high activity” and the “activity in the reference sites (Gamma Camera image)” value was “low activity”.
